According to patent publication US5250194A, “N-dodecyl heterocyclic compounds useful as industrial microbicides and preservatives” (Buckman Laboratories International, Inc., priority 1992, dated 1993):
In brackets after ≈: the same amount, converted by molar mass. Where two headings read alike, the source gives them in different places.

Legend:
Aspergillus niger = test: Fungal growth inhibition, minimum inhibitory concentration; format: cell-based; details: pH 6.0, completely prevented growth, read-out: Minimum inhibitory concentration against fungi
Protocol: The microorganism growth inhibiting activity of N-dodecyl heterocyclic compounds on the fungus Aspergillus niger was evaluated.

E. aerogenes = test: Pulp substrate method, minimum inhibitory concentration; format: cell-based
Description: The minimum inhibitory concentrations are those in which a percentage kill of at least 80% is obtained.

Phormidium inundatum = test: Algae growth inhibition in Difco Algae Broth; format: cell-based; details: 672 h
Protocol: (§1) The growth inhibiting activity of the method of the invention against the three algae Chlorella pyrenoidosa, Chlorococcum hypnosporum and Phormidium inundatum was evaluated in Difco Algae Broth, the content of which was as follows:
(§2) Forty-gram portions of the algae medium were added to 250 mL Pyrex Erlenmeyer flasks fitted with loose metal caps and then sterilized. Each of the following substances wa then added to the flasks in the order listed:
(§3) 1. Sterile algae medium as required to bring the total weight of the contents of each flask to 50 grams, after allowing for all subsequent additions specified below.
(§4) 2. A solution of the N-dodecyl heterocyclic toxicant or of a control agent to be evaluated in each test, to give the concentration desired in parts per million by weight.
(§5) 3. Chlorella pyrenoidosa, Chlorococcum hypnosporum and Phormidium inundatum in amounts sufficient to give excellent growth in the controls after 14 days. This was achieved by adding 1 milliliter of a 14 day old culture having luxuriant growth. The Chlorella pyrenoidosa culture was obtained from American Type Culture Collection No. 7516; Chlorococcum hynosporum, from the University of Texas at Austin; and Phormidium inundatum, Wisconsin No. 1093, from the University of Washington.
(§6) As a control experiment, WSCP was used as a positive control agent. WSCP is a known toxicant which kills C. pyrenoidosa at 2 ppm, C. hypnosporum at 2 ppm and P. inundatum at 10 ppm. Control experiments were also carried out where no toxicants were also employed. In the algicidal tests the growth of algae in the nutrient medium is lush green and can be seen with the naked eye. Because the minimum inhibitory concentrations of the compounds in this example are those which result in complete inhibition evaluation of the test results is not subjective.
(§7) After the inoculum of the test algae was added, the flasks were incubated at a temperature of 28° ±2° C. under fluorescent illumination of 250 foot-candle intensity (8 hours light, 16 hours darkness) for a period adequate for growth in the controls (those portions of medium which contained no toxicant). Observations of growth were made at 7-day intervals. Minimum inhibitory concentrations are those that prevented complete growth after 28 days.

Chlorococcum hypnosporum = test: Algae growth inhibition in Difco Algae Broth; format: cell-based; details: 672 h
Protocol: as §1, §2, §3, §4, §5, §6, §7

Chlorella pyrenoidosa = test: Algae growth inhibition in Difco Algae Broth; format: cell-based; details: Auxenochlorella pyrenoidosa, 672 h
Protocol: as §1, §2, §3, §4, §5, §6, §7

[1] = Firestone and Pisano; cited from earlier work
epoxidation of aldrin = details: rat liver; Wilkinson et al.; cited from earlier work
cholesterol biosynthesis = details: rat liver; Baggeley et al.; cited from earlier work
P. aeruginosa = test: Basal salts method, minimum inhibitory concentration; format: cell-based; details: basal salts solution
Protocol: The preferred compounds of the present invention were tested by the pulp substrate method and basal salts method described in U.S. Pat. No. 2,881,070 at column 5, beginning at line 12 and extending to column 6, line 53. The disclosure of U.S. Pat. No. 2,881,070 is specifically incorporated by reference herein. […] The minimum inhibitory concentrations are those in which a percentage kill of at least 80% is obtained.

[2] = Barker and Hadgraft; cited from earlier work
[3] = P. inundatum, pH 7.0, 28 days, read-out: Minimum inhibitory concentration against algae
[4] = C. hypnosporum, pH 7.0, 28 days, read-out: Minimum inhibitory concentration against algae
[5] = C. pyrenoidosa, pH 7.0, 28 days, read-out: Minimum inhibitory concentration against algae
[6] = pH 7, read-out: Minimum inhibitory concentration against algae

Compound	MIC (Aspergillus niger)	Minimum inhibitory concentration (E. aerogenes; pH 6.0, at least 80% kill)	Minimum inhibitory concentration (E. aerogenes; pH 8.0, at least 80% kill)	MIC (Phormidium inundatum; [3])	MIC (Chlorococcum hypnosporum; [4])	MIC (Chlorella pyrenoidosa; [5])	lysosomotropic detergent, useful as anti-cancer compounds and spermicides [1]	inhibitor of epoxidation of aldrin (epoxidation of aldrin)	inhibitor of cholesterol biosynthesis (cholesterol biosynthesis)	Minimum inhibitory concentration (P. aeruginosa; pH 6.0, at least 80% kill)	Minimum inhibitory concentration (P. aeruginosa; pH 8.0, at least 80% kill)	MIC (Phormidium inundatum; [6])	MIC (Chlorococcum hypnosporum; [6])	MIC (Chlorella pyrenoidosa; [6])	help the transport of anionic drugs [2]
CCCCCCCCCCCCN1CC(C)OC(C)C1 (centres unmarked) [Compound 3, N-dodecyl-2,6-dimethylmorpholine]	128 µg/mL (≈ 451 µM)	1000	1000	1000 µg/mL (≈ 3530 µM)	< 1 µg/mL	10 µg/mL (≈ 35.3 µM)	–	–	–	–	–	–	–	–	–
CCCCCCCCCCCCn1ccnc1 [Compound 2, N-Dodecylimidazole]	32 µg/mL (≈ 135 µM)	1000	> 1000	2 µg/mL (≈ 8.46 µM)	0.7 µg/mL (≈ 2.96 µM)	0.5 µg/mL (≈ 2.12 µM)	lysosomotropic detergents	inhibitor of epoxidation of aldrin of rat liver	inhibitor of cholesterol biosynthesis in rat liver	4	10	–	–	–	–
CCCCCCCCCCCCN1CCCC1=O [Compound 5, N-Dodecyl-2-pyrrolidinone]	32 µg/mL (≈ 126 µM)	1000	1000	10 µg/mL (≈ 39.5 µM)	10 µg/mL (≈ 39.5 µM)	10 µg/mL (≈ 39.5 µM)	–	–	–	–	–	–	–	–	–
CCCCCCCCCCCCN1CCCC(C)C1 (centres unmarked) [Compound 8, N-dodecyl-3-methylpiperidine]	256 µg/mL (≈ 957 µM)	1000	> 1000	10 µg/mL (≈ 37.4 µM)	1 µg/mL (≈ 3.74 µM)	10 µg/mL (≈ 37.4 µM)	–	–	–	–	–	–	–	–	–
CCCCCCCCCCCCN1CCCCC1C (centres unmarked) [Compound 11, N-Dodecyl-2-methylpiperidine]	1000 µg/mL (≈ 3740 µM)	100	> 1000	–	–	–	–	–	–	–	–	5 µg/mL (≈ 18.7 µM)	< 1 µg/mL	< 1 µg/mL	–
CCCCCCCCCCCCN1CC(CCl)OC1=O (centres unmarked) [Compound 4, N-dodecyl-5-chloromethyl-2-oxazolidinone]	> 512 µg/mL	1000	1000	100 µg/mL (≈ 329 µM)	100 µg/mL (≈ 329 µM)	100 µg/mL (≈ 329 µM)	–	–	–	–	–	–	–	–	–
CCCCCCCCCCCCN1CCC(C)CC1 [Compound 10, N-Dodecyl-4-methylpiperidine]	1000 µg/mL (≈ 3740 µM)	100	> 1000	< 1 µg/mL	< 1 µg/mL	< 1 µg/mL	–	–	–	–	–	–	–	–	–
CCCCCCCCCCCCN1CCCCC1 [Compound 9, N-Dodecylpiperidine]	32 µg/mL (≈ 126 µM)	1000	1000	–	–	–	–	–	–	–	–	10 µg/mL (≈ 39.5 µM)	1 µg/mL (≈ 3.95 µM)	1 µg/mL (≈ 3.95 µM)	–
CCCCCCCCCCCCN1CCCC1 [Compound 7, N-Dodecylpyrrolidine]	128 µg/mL (≈ 535 µM)	1000	> 1000	–	–	–	–	–	–	–	–	1 µg/mL (≈ 4.18 µM)	1 µg/mL (≈ 4.18 µM)	1 µg/mL (≈ 4.18 µM)	–
CCCCCCCCCCCCN1CCCCCC1 [Compound 6, N-Dodecylhexamethyleneimine]	256 µg/mL (≈ 957 µM)	> 1000	1000	–	–	–	–	–	–	–	–	10 µg/mL (≈ 37.4 µM)	1 µg/mL (≈ 3.74 µM)	1 µg/mL (≈ 3.74 µM)	–
CCCCCCCCCCCCN1CCOCC1 [Compound 1, N-Dodecylmorpholine]	> 100 µg/mL	25	25	–	1 µg/mL (≈ 3.91 µM)	1 µg/mL (≈ 3.91 µM)	lysosomotropic detergents	–	–	8	40	–	–	–	help the transport of anionic drugs
